Holding throughout (type): in vivo
Experiment [1] deals with undesirable plants of both the monocotyledonous and the dicotyledonous species. Description: Herbicidal activity, general. The settings on record: 16 pounds per acre. From the text: All of the 3-substituted compounds of the pyrido [3,2-d]pyrimidine-2,4(1H,3H)-dione and lumazine families made from intermediate amides produced by the method of this invention have an unexpectedly high order of herbicidal activity.
In using the compound, seeds of the types of plants set forth in Table II were sown in fresh soil. In the preemergence test the soil was sprayed with a solution of the test compound immediately after the seeds were planted, and before any noticeable growth developed. The solution was about a 2 percent by weight solution of the compound in acetone and/or alcohol. The compound was applied at the rate of 16 pounds per acre of soil surface.
Approximately 3 weeks after spray application, the herbicidal activity of the compound was determined by visual observation of the treated area in comparison with untreated control areas. These observations are reported below in Table II wherein the average activity rating is reported as the percent control of plant growth.
In the postemergence test the soil and developing plants were sprayed approximately 2 weeks after the seeds were sown. The compound was applied at the rate of 8 pounds per acre from about a 2 percent by weight solution of the test compound in acetone and/or alcohol. The postemergence herbicidal activity was measured in the same way as the preemergence activity; i.e. visual observation approximately 11 days after spraying, and expressed as the percent control of plant growth.

Experiment [2] deals with Alfalfa. Kind of experiment: Preemergence herbicidal activity, % control of plant growth. Particulars: Medicago sativa, pre-emergence, 504 h, 16 lb/acre, about 3 weeks. In a few lines:
(§1)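 Freshly sown soil received a spray of the test compound, about 2% by weight in acetone and/or alcohol, delivering 16 lb per acre of soil surface before seedlings emerged. Herbicidal effect was judged by eye roughly three weeks afterward relative to untreated areas.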

Experiment [3] relates to Barnyard Grass. Described as above. Particulars: Echinochloa crus-galli, pre-emergence, 504 h; barnyard grass; 16 lb/acre; about 3 weeks. A digest of the protocol:
as §1

The test system of experiment [4] is Cheatgrass. The experiment is described as above. Particulars: Bromus tectorum, pre-emergence, 504 h, 16 lb/acre, about 3 weeks. A digest of the protocol: as §1
For experiment [5], the system named is Chickweed. The experiment is described as above. Particulars: pre-emergence, 504 h, 16 lb/acre, about 3 weeks. A digest of the protocol:
as §1

For experiment [6], the system named is Corn. The experiment is described as above. The settings on record: Zea mays, pre-emergence, 504 h, 16 lb/acre, about 3 weeks. In a few lines:
as §1

Experiment [7] concerns Crabgrass. The experiment is described as above. The settings on record: Digitaria sanguinalis, pre-emergence, 504 h, 16 lb/acre, about 3 weeks. In a few lines:
as §1

Experiment [8] has as its system Cucumber. The description is as above. The settings on record: Cucumis sativus, pre-emergence, 504 h, 16 lb/acre, about 3 weeks. A digest of the protocol:
as §1

Experiment [9] concerns Curled Dock. Described as above. The settings on record: pre-emergence, 504 h, 16 lb/acre, about 3 weeks. A digest of the protocol: as §1
Experiment [10] relates to Foxtail. Described as above. The settings on record: Setaria, pre-emergence, 504 h, 16 lb/acre, about 3 weeks. A digest of the protocol: as §1
The test system of experiment [11] is Johnsongrass. Described as above. Particulars: Sorghum halepense, pre-emergence, 504 h, 16 lb/acre, about 3 weeks. A digest of the protocol:
as §1

The test system of experiment [12] is Lambsquarters. The experiment is described as above. The settings on record: Chenopodium album, pre-emergence, 504 h, 16 lb/acre, about 3 weeks. A digest of the protocol:
as §1

Experiment [13] deals with Nutgrass. Described as above. The settings on record: pre-emergence, 504 h, 16 lb/acre, about 3 weeks. A digest of the protocol:
as §1

The subject of experiment [14] is Pigweed. The description is as above. The settings on record: Amaranthus retroflexus, pre-emergence, 504 h, 16 lb/acre, about 3 weeks. A digest of the protocol: as §1
The subject of experiment [15] is Snapbeans. The description is as above. Particulars: pre-emergence, 504 h, 16 lb/acre, about 3 weeks. A digest of the protocol:
as §1

Experiment [16] concerns Velvetleaf. Described as above. Particulars: Abutilon theophrasti, pre-emergence, 504 h, 16 lb/acre, about 3 weeks. A digest of the protocol:
as §1

In experiment [17] the test system is Wild Oats. Described as above. The settings on record: Avena fatua, pre-emergence, 504 h, 16 lb/acre, about 3 weeks. In a few lines: as §1
Experiment [18] relates to Yellow Rocket. The description is as above. Particulars: pre-emergence, 504 h, 16 lb/acre, about 3 weeks. In a few lines: as §1
Experiment [19] relates to Alfalfa. Description: Postemergence herbicidal activity, % control of plant growth. The settings on record: Medicago sativa, post-emergence, 264 h, 8 lb/acre, about 11 days. A digest of the protocol:
(§2)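 Application rate was 8 lb/acre, sprayed from a roughly 2 percent by weight solution in acetone and/or alcohol onto soil and plants about two weeks after sowing. Control was rated visually around 11 days later.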

Experiment [20] concerns Barnyard Grass. The description is as above. The settings on record: Echinochloa crus-galli, post-emergence, 264 h, 8 lb/acre, about 11 days. In a few lines: as §2
For experiment [21], the system named is Cheatgrass. Described as above. The settings on record: Bromus tectorum, post-emergence, 264 h, 8 lb/acre, about 11 days. A digest of the protocol:
as §2

Experiment [22] relates to Chickweed. The description is as above. Particulars: post-emergence, 264 h, 8 lb/acre, about 11 days. A digest of the protocol: as §2
Experiment [23] relates to Corn. The description is as above. The settings on record: Zea mays, post-emergence, 264 h, 8 lb/acre, about 11 days. A digest of the protocol: as §2
For experiment [24], the system named is Crabgrass. The description is as above. Particulars: Digitaria sanguinalis, post-emergence, 264 h, 8 lb/acre, about 11 days. In a few lines:
as §2

For experiment [25], the system named is Cucumber. Described as above. Particulars: Cucumis sativus, post-emergence, 264 h, 8 lb/acre, about 11 days. In a few lines: as §2
Experiment [26] deals with Curled Dock. The experiment is described as above. Particulars: post-emergence, 264 h, 8 lb/acre, about 11 days. A digest of the protocol:
as §2

Experiment [27] deals with Foxtail. Described as above. The settings on record: Setaria, post-emergence, 264 h, 8 lb/acre, about 11 days. In a few lines:
as §2

The test system of experiment [28] is Johnsongrass. The experiment is described as above. Particulars: Sorghum halepense, post-emergence, 264 h, 8 lb/acre, about 11 days. In a few lines: as §2
In experiment [29] the test system is Lambsquarters. Described as above. The settings on record: Chenopodium album, post-emergence, 264 h, 8 lb/acre, about 11 days. In a few lines: as §2
Experiment [30] has as its system Nutgrass. Described as above. The settings on record: post-emergence, 264 h, 8 lb/acre, about 11 days. In a few lines:
as §2

The test system of experiment [31] is Pigweed. The description is as above. Particulars: Amaranthus retroflexus, post-emergence, 264 h, 8 lb/acre, about 11 days. A digest of the protocol:
as §2

In experiment [32] the test system is Snapbeans. The experiment is described as above. Particulars: post-emergence, 264 h, 8 lb/acre, about 11 days. In a few lines: as §2
The subject of experiment [33] is Velvetleaf. The description is as above. The settings on record: Abutilon theophrasti, post-emergence, 264 h, 8 lb/acre, about 11 days. In a few lines: as §2
Experiment [34] has as its system Wild Oats. The experiment is described as above. Particulars: Avena fatua, post-emergence, 264 h, 8 lb/acre, about 11 days. In a few lines: as §2
The test system of experiment [35] is Yellow Rocket. Described as above. Particulars: post-emergence, 264 h, 8 lb/acre, about 11 days. In a few lines: as §2

As for `CC(C)n1c(=O)[nH]c2ccncc2c1=O` [3-isopropyl-pyrido[4,3-d]pyrimidine-2,4(1H,3H)-dione], the “herbicidal activity” value in experiment [1] is listed as “no appreciable herbicidal activity”.
In general, pest or weed control refers to the degree to which the test organism was suppressed or injured, in per cent. The low end stands for a weak effect, the high end for a strong effect. By plant injury is commonly meant the degree to which the test organism was suppressed or injured, in per cent. Low values mean weak suppression, high ones strong suppression. As for `CCn1c(=O)[nH]c2cccnc2c1=O` [3-ethyl-pyrido[3,2-d]pyrimidine-2,4(1H,3H)-dione], the pest or weed control at 17933.6 g/ha in experiment [2] turned out to be 100%; in experiment [3], 40%; in experiment [4], 100%; in experiment [5], 100%; in experiment [7], 100%; in experiment [8], 100%. Also, the pest or weed control at 17933.6 g/ha in experiment [9] was 100%; in experiment [10], 40%; in experiment [11], 60%; in [12], 100%; in experiment [13], 10%; in experiment [14], 100%. Besides, the pest or weed control at 17933.6 g/ha in experiment [15] stood at 100%; in experiment [16], 90%; in experiment [17] it was 100%; in experiment [18] it was 100%. Also, the plant injury at 17933.6 g/ha in [6] turned out to be 10%. Also, the pest or weed control at 8966.8 g/ha was determined as 50% in experiment [19]; 10% in experiment [20]; 30% in experiment [21]; 100% in [22]; 80% in experiment [24]; 50% in experiment [25]. In addition, the pest or weed control at 8966.8 g/ha in experiment [26] is 90%; in experiment [27], 40%; in experiment [28] it was 60%; in experiment [29] it was 100%; in experiment [30], 10%; in experiment [31], 90%. Moreover, the pest or weed control at 8966.8 g/ha in experiment [32] amounted to 80%; in [33], 100%; in [34] it was 0%; in experiment [35], 100%. In [23], this compound returned a plant injury at 8966.8 g/ha of 10%.
For the compound `O=c1[nH]c2ncccc2c(=O)n1-c1ccccc1` [3-phenyl-pyrido[2,3-d]pyrimidine-2,4(1H,3H)-dione], the “herbicidal activity” value in experiment [1] is “no appreciable herbicidal activity”.
On the same count and under the same terms, to `O=c1[nH]c2ncccc2c(=O)n1C1CCCCC1` [3-cyclohexyl-pyrido[2,3-d]pyrimidine-2,4-(1H,3H)-dione] belongs “no appreciable herbicidal activity”.
For the compound `CCCCn1c(=O)[nH]c2nccnc2c1=O` [Lumazine, 3-butyl], the pest or weed control at 17933.6 g/ha in [2] came to 0%; in experiment [3], 0%; in experiment [4], 0%; in experiment [5] it was 90%; in [7] it was 0%; in experiment [8], 0%. The pest or weed control at 17933.6 g/ha in [9], in experiment [10], in experiment [11], in experiment [12], in experiment [13] and in experiment [14] was 0% each time. Further, the pest or weed control at 17933.6 g/ha in [15] came to 20%; in experiment [16], 0%; in experiment [17] it was 0%; in experiment [18], 0%. Also, the plant injury at 17933.6 g/ha in [6] worked out at 0%. Also, the pest or weed control at 8966.8 g/ha in experiment [19], in [20], in experiment [21], in experiment [22], in [24] and in experiment [25] was 0% each time. Besides, the pest or weed control at 8966.8 g/ha was found to be 0% in experiment [26]; 0% in experiment [27]; 0% in experiment [28]; 70% in experiment [29]; 0% in experiment [30]; 0% in experiment [31]. Moreover, the pest or weed control at 8966.8 g/ha in [32] amounted to 0%; in experiment [33], 0%; in experiment [34], 0%; in [35], 70%. Also, in experiment [23], the plant injury at 8966.8 g/ha was found to be 0%.
On to `CCC(C)n1c(=O)[nH]c2nccnc2c1=O` (stereo not drawn) [Lumazine, 3-sec-butyl], for which the pest or weed control at 17933.6 g/ha in experiment [2] turned out to be 100%; in experiment [3], 40%; in [4], 90%; in experiment [5] it was 40%; in experiment [7] it was 100%; in [8] it was 10%. For the same compound, the pest or weed control at 17933.6 g/ha in experiment [9] stood at 70%; in [10], 30%; in experiment [11], 40%; in experiment [12], 100%; in experiment [13] it was 40%; in [14], 100%. The pest or weed control at 17933.6 g/ha in [15] turned out to be 90%; in experiment [16], 100%; in [17], 30%; in experiment [18], 100%. Moreover, the plant injury at 17933.6 g/ha in [6] was 10%. The pest or weed control at 8966.8 g/ha in [19] is 50%; in experiment [20], 0%; in experiment [21], 0%; in experiment [22], 0%; in [24], 0%; in experiment [25] it was 60%. In addition, the pest or weed control at 8966.8 g/ha was 50% in experiment [26]; 0% in experiment [27]; 0% in experiment [28]; 100% in [29]; 0% in experiment [30]; 20% in experiment [31]. In addition, the pest or weed control at 8966.8 g/ha is 20% in [32], 90% in experiment [33], 0% in experiment [34] and 100% in experiment [35]. Besides, in experiment [23], the plant injury at 8966.8 g/ha came out at 0%.
